Results on four molecules are retold here after patent US8673587B2, “Methods for identifying allosteric and other novel acyl-coenzyme A:cholesterol acyltransferase inhibitors” (Trustees of Dartmouth College, priority 2010, dated 2014).

Series [1] deals with T1, HisACAT1/FLAG (recombinant hACAT1) (Homo sapiens, UniProt P35610, M1L).
T1 construct: hACAT1 contains 550 amino acids; made in house
T1 sequence (P35610 1-550 M1L): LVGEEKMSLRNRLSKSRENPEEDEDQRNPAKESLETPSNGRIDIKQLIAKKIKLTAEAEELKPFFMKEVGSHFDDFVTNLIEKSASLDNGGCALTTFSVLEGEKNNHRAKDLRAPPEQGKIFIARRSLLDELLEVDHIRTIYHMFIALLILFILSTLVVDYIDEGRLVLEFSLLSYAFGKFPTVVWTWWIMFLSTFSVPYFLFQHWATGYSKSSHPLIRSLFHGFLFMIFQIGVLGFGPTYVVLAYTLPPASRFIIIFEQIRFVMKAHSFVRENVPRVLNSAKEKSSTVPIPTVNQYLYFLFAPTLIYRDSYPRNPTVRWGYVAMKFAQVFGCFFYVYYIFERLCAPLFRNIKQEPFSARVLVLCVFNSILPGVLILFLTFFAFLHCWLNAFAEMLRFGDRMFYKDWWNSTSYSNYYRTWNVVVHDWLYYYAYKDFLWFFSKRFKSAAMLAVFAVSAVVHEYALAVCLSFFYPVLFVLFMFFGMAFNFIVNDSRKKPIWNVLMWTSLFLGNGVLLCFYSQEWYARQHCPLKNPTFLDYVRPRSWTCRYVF
As to the kind of experiment: Steady-state enzyme kinetics with fatty acyl-CoA as variable substrate, purified HisACAT1/FLAG. The class given is biochemical. The note with it: constant, saturating cholesterol in CHAPS/PC mixed micelles. How it is done:
(§1) To monitor enzyme activity during enzyme purification, the enzyme solubilized in the detergent CHAPS was assayed in preformed taurocholate/cholesterol/phosphatidylcholine (PC) mixed micelles as described previously (Chang, C. C. et al. 1998. J. Biol. Chem. 273:35132-35141), with a final concentration of taurocholate at 9.3 mM, PC at 11.2 mM, and cholesterol at 1.6 mM. The amount of mixed micelle solution was used to dilute the detergent presented in the enzyme preparation, so the final CHAPS/PC molar ratio was less than 0.4. The fatty acyl-CoA substrate saturation curves and cholesterol substrate saturation curves were performed under the same conditions as described previously (Chang, C. C. et al. 1998. supra).
(§2) Prior to conducting binding experiments, steady-state enzyme kinetic experiments were conducted using purified HisACAT1/FLAG as the enzyme source and either oleoyl- (18:1) CoA or stearoyl- (18:0) CoA as the variable substrate, at a constant, saturating level of cholesterol in the CHAPS/PC mixed micelles.

The target in series [2] is T1, HisACAT1/FLAG (recombinant hACAT1). The experiment in a line: Ligand binding by change in intrinsic (tryptophan) fluorescence of HisACAT1/FLAG. The text has this: Fluorescence measurements were generated using an ISS PC1 photocounting fluorescence spectrophotometer (model 90095). This instrument has continuously reproducible slits ranging from 0.4 to 32 nm band-pass. The excitation slit width was set at 2 nm. The wavelength for excitation was set at 295 nm in order to minimize the contribution of tyrosine residues to the fluorescence. Purified HisACAT1/FLAG was concentrated using 30K AMICON centrifugal filters such that the final concentration of the protein was 100-200 ng/μL (1.5-3 μM). Purified protein was stored at −80° C. until used. Unless stated otherwise, the fluorescence measurements were performed at pH 7.8 with 50 mM potassium phosphate, 0.5M KCl, and 8.13 mM CHAPS. Sterol (cholesterol, epicholesterol, coprostanol, and epicoprostanol) was prepared as CHAPS/PC/sterol mixed micelles (with CHAPS at 8.13 mM, PC at 4 mM, and with varying concentrations of sterols as indicated) and stored at 20° C. in the dark until usage. The fatty acyl-CoAs were dissolved in 20 mM sodium acetate at pH 6.4 as a 2 mM stock and stored at −80° C. until used. Before the experiment started, all reagents were kept on ice in the dark. To begin the experiment, 50 μL of mixed micelles without or with sterols was added into a HELLMA microcuvette with 3 mm light path. Twenty-five microliters of ACAT1 protein (in 8.13 mM CHAPS and 0.5 M KCl) was then added and rapidly mixed. Fluorescence was monitored within 15 seconds of adding the enzyme. The sample compartment of the instrument was maintained at 20° C. The fluorescence emission spectrum was scanned in 2 minutes between 310 and 410 nm. The differences in fluorescence intensity at 10 intervals within 325-335 nm were averaged in order to calculate the ΔF value between the ligated protein vs that of the unligated protein.
Binding studies were subsequently conducted by monitoring the effect of increasing concentrations of oleoyl-CoA on the intrinsic fluorescence of HisACAT1/FLAG. […] However, the maximal change in the peak of the spectrum was much smaller (5% with respect to the unliganded protein). […] The data was analyzed for a simple bimolecular dissociation equilibrium using the PRISM program.
Binding experiments were subsequently performed by monitoring the effect of increasing concentrations of cholesterol, from 10 to 600 μM, on the intrinsic fluorescence of HisACAT1/FLAG. […] It was estimated that the cholesterol concentration that caused half-maximal spectral change was 35 μM. […] The changes in the intrinsic fluorescence of ACAT1 caused by cholesterol, epicholesterol, coprostanol, or epicoprostanol as the ligand were also compared.

Series [3] deals with T2, histidine-tagged recombinant human ACAT1 (Homo sapiens, UniProt P35610, M1L).
T2 construct: hACAT-1 cDNA (nucleotide residues 1397-3046, a total of 550 amino acids); made in house; partially purified on a nickel column
T2 sequence (P35610 1-550 M1L): T1 sequence (P35610 1-550 M1L)
As to the kind of experiment: Steroid (pregnenolone/DHEA/E2) esterification in mixed micelles, ACAT1 as enzyme source. The class given is biochemical. Conditions: for ACAT1 substrate activity: 1 μM [3H]-steroid. From the text: (§3) The method of the present invention was developed in experiments using a mixed micelle enzyme assay system. […] A candidate ACAT inhibitor is an allosteric inhibitor if it is shown in the method of the present invention to inhibit cholesterol-dependent pregnenolone esterification but not to inhibit the basal pregnenolone esterification when cholesterol is absent in the assay mixture. […] In the assay system of the present invention, the source of ACAT was histidine-tagged recombinant human ACAT1 or human ACAT2, stably expressed in Chinese hamster ovary (CHO) cells that lack endogenous ACAT activity. However, one of skill in the art could employ other suitable mammalian cell systems as needed. The enzyme preparations used in the present method were partially purified through the use of nickel column chromatography, as described previously (Liu et al. 2005. Biochem. J. 391:389-397), using cells that stably expressing histidine-tagged recombinant human ACAT1 or human ACAT2 as the enzyme source.
(§4) In developing the method of the present invention, a series of experiments was performed. Pregnenolone is one compound that contains the classical A, B, C, D steroid rings as well as a 3 beta-OH moiety. Based on its structure, pregnenolone may be an ACAT substrate. However, this possibility had not previously been tested experimentally. In the present invention, the activity of pregnenolone was tested by using radiolabeled pregnenolone ([^3H]-pregnenolone) in a mixed micelle enzyme assay mixture that contained the detergent taurocholate (or CHAPS), phosphatidylcholine, and oleyl-coenzyme A bound to bovine serum albumin (BSA). The enzyme used was histidine-tagged human ACAT1 or human ACAT2. The esterification of pregnenolone (i.e., formation of pregnenolone oleate) was monitored by performing lipid extraction to isolate [^3H]-pregnenolone oleate and [^3H]-pregnenolone. [^3H]-pregnenolone oleate was then separated from [^3H]-pregnenolone by using conventional thin-layer chromatography. Levels of [^3H]-pregnenolone oleate formed was measured using a scintillation counter. […] Thus, using ACAT1 as the enzyme source, the esterification of DHEA was examined (FIG. 1C).
A pregnenolone substrate saturation curve was then constructed, with or without addition of cholesterol to the assay mixture, using ACAT1 as the enzyme source (FIG. 2A). […] Then, a DHEA substrate saturation curve was constructed, with cholesterol present.
Further experiments were performed to examine the effect of adding various non-oxysterols, at a concentration of 0.32 mM, on pregnenolone esterification in vitro, with ACAT1 as the enzyme source.
(§5) To assay the enzyme, the pregnenolone/detergent/PC micelles and the cholesterol/detergent/PC micelles were prepared individually as follows: the radiolabeled pregnenolone/PC mixture or the cholesterol/PC mixture was prepared as described previously (Shi et al. 1989. Biochim. Biophys. Acta 982:187-195) and lyophilized to remove residual organic solvents. After lyophilization, the detergent sodium taurocholate (or other detergent such as CHAPS) in Buffer A was added to reach a final concentration of 10 mg/ml. The mixture was purged with nitrogen, followed by sonication until this mixture was clear. The pregnenolone/PC micelles were mixed with the cholesterol/PC micelles such that the cholesterol concentration is at 0 mM or at 0.32 mM, and the radioactive pregnenolone concentration is at 1 μM (specific activity 20 Ci/mmol).

Series [4] deals with T3, histidine-tagged recombinant human ACAT2 (Homo sapiens, UniProt O75908).
T3 construct: made in house; partially purified on a nickel column
T3 sequence (O75908 1-522): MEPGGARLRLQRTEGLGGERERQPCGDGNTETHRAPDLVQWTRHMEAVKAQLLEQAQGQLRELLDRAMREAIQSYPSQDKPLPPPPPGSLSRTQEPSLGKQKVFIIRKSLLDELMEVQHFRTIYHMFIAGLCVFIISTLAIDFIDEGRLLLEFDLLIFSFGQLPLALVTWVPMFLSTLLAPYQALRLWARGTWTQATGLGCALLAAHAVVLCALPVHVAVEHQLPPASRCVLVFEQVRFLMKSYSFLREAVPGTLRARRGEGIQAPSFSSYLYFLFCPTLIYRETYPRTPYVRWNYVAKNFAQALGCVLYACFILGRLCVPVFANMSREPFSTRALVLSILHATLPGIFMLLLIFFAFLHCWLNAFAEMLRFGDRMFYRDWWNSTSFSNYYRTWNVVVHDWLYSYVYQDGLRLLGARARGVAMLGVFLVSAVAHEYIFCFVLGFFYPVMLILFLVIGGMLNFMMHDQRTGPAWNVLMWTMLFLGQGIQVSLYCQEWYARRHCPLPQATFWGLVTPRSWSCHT
The experiment in a line: Pregnenolone esterification in mixed micelles, ACAT2 as enzyme source. The class given is biochemical. Conditions: 1 μM [3H]-pregnenolone.
Text: as §3, §4, §5

The next series has as its target T4, ACAT1 (Homo sapiens, UniProt P35610, M1L).
T4 construct: hACAT-1 cDNA (nucleotide residues 1397-3046, a total of 550 amino acids); made in house; partially purified on a nickel column
T4 sequence (P35610 1-550 M1L): T1 sequence (P35610 1-550 M1L)
As to the kind of experiment: Cholesterol esterification in vitro ([3H]-oleoyl-CoA/BSA labeled substrate), cholesterol substrate saturation curve. It is filed as biochemical. The note with it: pregnenolone added at 5 μM.

Substrate in series [5]: CC(C)CCC[C@@H](C)[C@H]1CC[C@H]2[C@@H]3CC=C4C[C@@H](O)CC[C@]4(C)[C@H]3CC[C@]12C
The description is as above. The note with it: other: ACAT1. The class given is biochemical, human.

Substrate in series [6]: CCCCCCCC/C=C\CCCCCCCC(=O)SCCNC(=O)CCNC(=O)[C@H](O)C(C)(C)COP(=O)(O)OP(=O)(O)OC[C@H]1O[C@@H](n2cnc3c(N)ncnc32)[C@H](O)[C@@H]1OP(=O)(O)O
As to the kind of experiment: Steady-state enzyme kinetics with fatty acyl-CoA as variable substrate, purified HisACAT1/FLAG. It is filed as biochemical, human. The note with it: other: constant, saturating cholesterol in CHAPS/PC mixed micelles. How it is done: as §1, §2

Substrate in series [7]: CCCCCCCCCCCCCCCCCC(=O)SCCNC(=O)CCNC(=O)[C@H](O)C(C)(C)COP(=O)(O)OP(=O)(O)OC[C@H]1O[C@@H](n2cnc3c(N)ncnc32)[C@H](O)[C@@H]1OP(=O)(O)O
The description is as above. It is filed as biochemical, human. Conditions: other: constant, saturating cholesterol in CHAPS/PC mixed micelles. As to the method: as §1, §2

Setting [8] is: presence of excess cholesterol (0.32 mM).

The term Km denotes the concentration of substrate that gives half-maximal velocity.

As for `CCCCCCCC/C=C\CCCCCCCC(=O)SCCNC(=O)CCNC(=O)[C@H](O)C(C)(C)COP(=O)(O)OP(=O)(O)OC[C@H]1O[C@@H](n2cnc3c(N)ncnc32)[C@H](O)[C@@H]1OP(=O)(O)O` [oleoyl-CoA], in series [1], the “Vmax, fold higher than for stearoyl-CoA” value was 2.4 fold. For the same molecule, in series [2] (excitation 295 nm, peak 330 nm), the “maximal increase in fluorescence peak height with respect to unliganded ACAT1 protein” value is “approximately 32%”. For the same molecule, the Kd in series [2] (simple bimolecular dissociation equilibrium, PRISM, read-out: dissociation constant) came out at 1900 nM.
Take `CC(=O)[C@H]1CC[C@H]2[C@@H]3CC=C4C[C@@H](O)CC[C@]4(C)[C@H]3CC[C@]12C` [pregnenolone]: the “estimated Km, fold lower than that of cholesterol” value in series [3] (ACAT1, cholesterol present) is on record as 600 fold. Also, the ACAT1 substrate activity entry is given as “very poor substrate” in series [3] (absence of cholesterol) and “much better substrate” in series [3] (setting [8]). In addition, the Km in series [3] (with cholesterol present in vitro (0.32 mM), read-out: apparent Km as ACAT1 substrate) is about 1.2 µM. In addition, in series [3] (without cholesterol present in vitro), the “Km as ACAT1 substrate” value is “too high to be measurable”. For the same molecule, the ACAT2 substrate activity entry was “very poor substrate” in series [4] (absence of cholesterol) and “much better substrate” in series [4] (setting [8]). On ACAT1, the “inhibition of cholesterol esterification” value is on record as 10-15%.

B1: ACAT1 (Homo sapiens; M1L) (protein)
chain: T1 sequence (P35610 1-550 M1L)
notes: hACAT-1 cDNA (nucleotide residues 1397-3046, a total of 550 amino acids); made in house; partially purified on a nickel column
B1: the Km in series [5] is 300 µM.

B2: HisACAT1/FLAG (recombinant hACAT1) (Homo sapiens; M1L) (protein)
chain: T1 sequence (P35610 1-550 M1L)
notes: hACAT1 contains 550 amino acids; made in house
In the case of B2, the Km was determined as 1.3 µM in series [6] and 6.4 µM in series [7].
